Earlier results as cited in patent US20140243428A1, “SELF HEALING HYDROGELS” (The Regents of the University of California, priority 2013, published 2014).

- pKa: 4.4
Compound: NCCCCCC(=O)O [6-aminocaproic acid]
